The text below walks through data of EP4772520A1, “NOVEL PRODRUG-TYPE ANTICANCER AGENT TARGETING CANCER-SPECIFIC ENZYME ACTIVITY” (priority 2023, dated 2025).

For data set [1], the system named is primary lung squamous cell carcinoma PDX tumor (DLUN013/F_PDX_000162). Briefly: Tumor proliferation suppression test in PDX model mice. It is filed as in vivo. The note with it: 200 mg/kg i.v., 6 times over 2 weeks. As for the experimental part:
With respect to SN38-βGlcNAc showing high sensitivity by the organoid test, an in vivo tumor proliferation suppression test was performed using a primary lung squamous cell carcinoma PDX tumor (DLUN013/F_PDX_000162) established at Fukushima Medical University Medical and Industrial TR Center from the same patient. 200 mg/kg of SN38-βGlcNAc was intravenously administered to PDX subcutaneous tumor model mice a total of 6 times over 2 weeks as shown in the administration schedule (a of Fig. 30), and the tumor proliferation suppression effect was evaluated. The Vehicle (DMSO administration) group and the SN38-βGlcNAc administration group were n = 6, respectively.
A specific procedure of the therapeutic experiment is shown below. • (1) The tube containing the frozen tumor tissue was thawed in a thermostatic water bath at 37°C. […] The SN38-βGlcNAc was prepared by dissolving a 400 mM of DMSO stock in PBS, and was intravenously administered from the tail vein 3 times a week for 2 weeks at a dose of 200 mg/kg with a total amount of 100 µL. • (5) The tumor volume and body weight were measured on the day of evaluation. • (6) The tumor was removed, and then subjected to fluorescence imaging using HMRef-βGlcNAc (50 µM, PBS solution) in the presence and absence of PUGNAc (500 µM), which is an inhibitor of β-hexosaminidase.

The test system of data set [2] is luciferase-expressing A549 cell. Put plainly: Therapeutic experiment in A549 peritoneal dissemination model. It is filed as in vivo, mice. As for the experimental part: The therapeutic effect was verified using a peritoneal dissemination model using SN38-βGal. Whether the tumor suppression effect was confirmed was evaluated as compared with the Vehicle group (DMSO administration) by separating the SN38-βGal from the 10 mg/kg and 20 mg/kg administration groups.
n = 3 for each group, and evaluation was performed on luciferase-expressing A549 cell peritoneal dissemination model mice using BALB/cAJcl-nu/nu. The administration form was intraperitoneal administration (i.p.), and continuous administration was performed for 40 days. Tumor burden was determined by evaluating luciferin/luciferase chemiluminescence. An endpoint was a time point at which significant body weight loss (20% loss) or intraperitoneal hemorrhage was found.
A specific procedure of the therapeutic experiment is shown below. • (1) Luciferase expressing A549 cells 5 × 10^6 cells/mL (200 µL) was intraperitoneally administered to BALB/cAJcl-nu/nu (7 weeks old). • (2) After one week, the formation of peritoneal dissemination was confirmed by luciferin/luciferase chemiluminescence, and drug administration was started. 3 mg (200 µL) of luciferin was administered by intraperitoneal administration, and anesthetized with isoflurane. Thereafter, the chemiluminescent value at 20 minutes after administration was measured by an in vivo imaging device. The drug was prepared by dissolving a 100 mM of DMSO stock in PBS, and administered in a total amount of 100 µL. • (3) On the day of evaluation, the tumor burden was evaluated by luciferin/luciferase chemiluminescence. • (4) After completion of the treatment, gGlu-HMRG (10 µM, 500 µL PBS) was intraperitoneally administered, and 10 minutes later, the abdomen was opened, and the intestinal tract and the peritoneum were taken out. • (5) The seeded lesion was fluorescently imaged by an in vivo fluorescence imaging device, and comparison between the Vehicle and the administration group was performed.

Regarding `CCc1c2c(nc3ccc(O[C@@H]4O[C@H](CO)[C@@H](O)[C@H](O)[C@H]4NC(C)=O)cc13)-c1cc3c(c(=O)n1C2)COC(=O)[C@]3(O)CC` [SN38-βGlcNAc], the body weight change result in data set [1] is recorded as “No body weight change was observed”. In data set [1] (n = 6, vs Vehicle), the “tumor proliferation suppression effect (tumor volume)” value is reported as “the tumor growth was significantly suppressed”.
For `CCc1c2c(nc3ccc(O[C@@H]4O[C@H](CO)[C@H](O)[C@H](O)[C@H]4O)cc13)-c1cc3c(c(=O)n1C2)COC(=O)[C@]3(O)CC` [SN38-βGal], the “tumor suppression effect (luciferin/luciferase chemiluminescence)” value in data set [2] (10 mg/kg and 20 mg/kg i.p., continuous administration for 40 days, vs Vehicle) is “the therapeutic efficacy of SN38-βGal in peritoneal dissemination model mice was confirmed”. Also, the body weight result in data set [2] (10 mg/kg i.p. group) is on record as “there was almost no difference from the Vehicle”; in data set [2] (20 mg/kg i.p. group), “a slight body weight loss was found in the 20 mg/kg group by Day 10 of administration”.
